BindingDB's records for doi:10.1016/j.bmcl.2006.01.057 (Glaxosmithkline, 2006)

Each compound was assayed against Glycogen synthase kinase-3 beta (Homo sapiens, UniProt P49841) (assay: Kinase Inhibition SPA Assay). Conditions: pH 7.2; 22 °C.
Description: The biochemical activity of compounds was determined by incubation with specific enzyme and substrate in the presence 2.5 uM ATP/ [gamma-33P] ATP. After incubation, the reaction was stopped and the phosphorylated substrate was separated from nonincorporated radioactive ATP using Streptavidin-coated SPA beads (Amersham Pharmacia), counted using TopCount (Packard) to measure substrate-incorporated phosphate.

Glycogen synthase kinase-3 beta, sequence (P49841 whole entry): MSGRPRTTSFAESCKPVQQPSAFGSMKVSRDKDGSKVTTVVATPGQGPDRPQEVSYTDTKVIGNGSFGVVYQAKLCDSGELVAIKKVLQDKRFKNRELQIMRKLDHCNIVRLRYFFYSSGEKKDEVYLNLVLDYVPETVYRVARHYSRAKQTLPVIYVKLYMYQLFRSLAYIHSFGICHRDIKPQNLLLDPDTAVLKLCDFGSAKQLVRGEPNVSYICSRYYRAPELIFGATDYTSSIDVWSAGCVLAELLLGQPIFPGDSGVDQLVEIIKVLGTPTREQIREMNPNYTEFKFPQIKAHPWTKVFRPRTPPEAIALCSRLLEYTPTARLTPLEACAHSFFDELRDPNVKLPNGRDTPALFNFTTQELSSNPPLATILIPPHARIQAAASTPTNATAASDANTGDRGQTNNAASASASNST

Row | Compound | IC50 [nM]
1 | COc1cccc(-c2cn(C)c3c(N=NCc4ccncc4)ncnc23)c1 [4-[(1E)-{2-[7-(3-methoxyphenyl)-5-methyl-5H-pyrrolo[3,2-d]pyrimidin-4-yl]hydrazin-1-ylidene}methyl]pyridine] | 501
2 | COc1cccc(-n2ccc3c(N=NCc4ccncc4)ncnc32)c1 [4-[(1E)-{2-[7-(3-methoxyphenyl)-7H-pyrrolo[2,3-d]pyrimidin-4-yl]hydrazin-1-ylidene}methyl]pyridine] | 31.6
3 | COc1cccc(-n2cnc3c(N=NCc4ccncc4)ncnc32)c1 [9-(3-methoxyphenyl)-6-[(2E)-2-(pyridin-4-ylmethylidene)hydrazin-1-yl]-9H-purine] | 631

Compounds with a lower IC50, results first:

Row | IC50 [nM] | Compound
4 | 5.01 | COc1cccc(-c2c[nH]c3c(N=NCc4ccncc4)ncnc23)c1 [4-[(1E)-{2-[7-(3-methoxyphenyl)-5H-pyrrolo[3,2-d]pyrimidin-4-yl]hydrazin-1-ylidene}methyl]pyridine]
5 | 6.3 | COc1cccc(-n2ncc3c(N=NCc4ccncc4)ncnc32)c1 [4-[(1E)-{2-[1-(3-methoxyphenyl)-1H-pyrazolo[3,4-d]pyrimidin-4-yl]hydrazin-1-ylidene}methyl]pyridine]
6 | 5.01 | COc1cccc(-c2n[nH]c3c(N=NCc4ccncc4)ncnc23)c1 [4-[(1E)-{2-[3-(3-methoxyphenyl)-1H-pyrazolo[4,3-d]pyrimidin-7-yl]hydrazin-1-ylidene}methyl]pyridine]
